Reference: PubChem BioAssay AID1963869 (Molecular Pharmacology Branch, DTP, NCI, 2024)

tested on: KRAS patient-derived spheroids with HUVEC/MSC, viability; assay: Anticancer human tumor 323965-272-R-J2-PDC patient-derived pancreatic carcinoma cell line growth inhibition [KRAS2]; conditions: second compound 1 µM; first compound 0.001 µM; active compounds read low
Summary of the method: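 KRAS-mutant tumor cells were grown as spheroids with HUVEC endothelial cells and human MSCs as stroma. Targeted agents were tested alone and with KRAS pathway inhibitors. Doses started at or near clinical Cmax, or 10 microM, descending half-log.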
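Note: spheroids exposed to agents for 7 days; 100% = DMSO vehicle control viability.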

Compound | viability, T/C [%]
CC(=O)Nc1cccc(-n2c(=O)n(C3CC3)c(=O)c3c(Nc4ccc(I)cc4F)n(C)c(=O)c(C)c32)c1 + CC1OCC2(CCN(c3cnc(Sc4ccnc(N)c4Cl)c(N)n3)CC2)C1N | 33.6
CC(C)n1nc(-c2ccc3oc(N)nc3c2)c2c(N)ncnc21 + CC1OCC2(CCN(c3cnc(Sc4ccnc(N)c4Cl)c(N)n3)CC2)C1N | 35.9

same assay, conditions: second compound 1 µM; first compound 0.00316 µM; active compounds read low

Compound | viability, T/C [%]
CC(=O)Nc1cccc(-n2c(=O)n(C3CC3)c(=O)c3c(Nc4ccc(I)cc4F)n(C)c(=O)c(C)c32)c1 + CC1OCC2(CCN(c3cnc(Sc4ccnc(N)c4Cl)c(N)n3)CC2)C1N | 25.6
CC(C)n1nc(-c2ccc3oc(N)nc3c2)c2c(N)ncnc21 + CC1OCC2(CCN(c3cnc(Sc4ccnc(N)c4Cl)c(N)n3)CC2)C1N | 26.8

same assay, conditions: second compound 1 µM; first compound 0.01 µM; active compounds read low

Compound | viability, T/C [%]
CC(=O)Nc1cccc(-n2c(=O)n(C3CC3)c(=O)c3c(Nc4ccc(I)cc4F)n(C)c(=O)c(C)c32)c1 + CC1OCC2(CCN(c3cnc(Sc4ccnc(N)c4Cl)c(N)n3)CC2)C1N | 20.4
CC(C)n1nc(-c2ccc3oc(N)nc3c2)c2c(N)ncnc21 + CC1OCC2(CCN(c3cnc(Sc4ccnc(N)c4Cl)c(N)n3)CC2)C1N | 15.6

same assay, conditions: second compound 1 µM; first compound 0.0316 µM; active compounds read low

Compound | viability, T/C [%]
CC(=O)Nc1cccc(-n2c(=O)n(C3CC3)c(=O)c3c(Nc4ccc(I)cc4F)n(C)c(=O)c(C)c32)c1 + CC1OCC2(CCN(c3cnc(Sc4ccnc(N)c4Cl)c(N)n3)CC2)C1N | 17.1
CC(C)n1nc(-c2ccc3oc(N)nc3c2)c2c(N)ncnc21 + CC1OCC2(CCN(c3cnc(Sc4ccnc(N)c4Cl)c(N)n3)CC2)C1N | 7.51
COC(=O)c1ccc2c(C(=Nc3ccc(N(C)C(=O)CN4CCN(C)CC4)cc3)c3ccccc3)c(O)[nH]c2c1 + CC1OCC2(CCN(c3cnc(Sc4ccnc(N)c4Cl)c(N)n3)CC2)C1N | 45.3
COc1cc(Nc2ncc3c(n2)-c2ccc(Cl)cc2C(c2c(F)cccc2OC)=NC3)ccc1C(=O)O + CC1OCC2(CCN(c3cnc(Sc4ccnc(N)c4Cl)c(N)n3)CC2)C1N | 44.9
COc1cc2nccc(Oc3ccc(NC(=O)C4(C(=O)Nc5ccc(F)cc5)CC4)cc3)c2cc1OC + CC1OCC2(CCN(c3cnc(Sc4ccnc(N)c4Cl)c(N)n3)CC2)C1N | 46.9
O=C(c1cc(Cc2n[nH]c(=O)c3ccccc23)ccc1F)N1CCN(C(=O)C2CC2)CC1 + CC1OCC2(CCN(c3cnc(Sc4ccnc(N)c4Cl)c(N)n3)CC2)C1N | 101

same assay, conditions: second compound 1 µM; first compound 0.1 µM; active compounds read low

Compound | viability, T/C [%]
CC(C)n1nc(-c2ccc3oc(N)nc3c2)c2c(N)ncnc21 + CC1OCC2(CCN(c3cnc(Sc4ccnc(N)c4Cl)c(N)n3)CC2)C1N | 2.03
COC(=O)c1ccc2c(C(=Nc3ccc(N(C)C(=O)CN4CCN(C)CC4)cc3)c3ccccc3)c(O)[nH]c2c1 + CC1OCC2(CCN(c3cnc(Sc4ccnc(N)c4Cl)c(N)n3)CC2)C1N | 47.9
COc1cc(Nc2ncc3c(n2)-c2ccc(Cl)cc2C(c2c(F)cccc2OC)=NC3)ccc1C(=O)O + CC1OCC2(CCN(c3cnc(Sc4ccnc(N)c4Cl)c(N)n3)CC2)C1N | 26.6
COc1cc2nccc(Oc3ccc(NC(=O)C4(C(=O)Nc5ccc(F)cc5)CC4)cc3)c2cc1OC + CC1OCC2(CCN(c3cnc(Sc4ccnc(N)c4Cl)c(N)n3)CC2)C1N | 42.4
O=C(c1cc(Cc2n[nH]c(=O)c3ccccc23)ccc1F)N1CCN(C(=O)C2CC2)CC1 + CC1OCC2(CCN(c3cnc(Sc4ccnc(N)c4Cl)c(N)n3)CC2)C1N | 106

same assay, conditions: second compound 1 µM; first compound 0.316 µM; active compounds read low

Compound | viability, T/C [%]
COC(=O)c1ccc2c(C(=Nc3ccc(N(C)C(=O)CN4CCN(C)CC4)cc3)c3ccccc3)c(O)[nH]c2c1 + CC1OCC2(CCN(c3cnc(Sc4ccnc(N)c4Cl)c(N)n3)CC2)C1N | 53.2
COc1cc(Nc2ncc3c(n2)-c2ccc(Cl)cc2C(c2c(F)cccc2OC)=NC3)ccc1C(=O)O + CC1OCC2(CCN(c3cnc(Sc4ccnc(N)c4Cl)c(N)n3)CC2)C1N | 23.4
COc1cc2nccc(Oc3ccc(NC(=O)C4(C(=O)Nc5ccc(F)cc5)CC4)cc3)c2cc1OC + CC1OCC2(CCN(c3cnc(Sc4ccnc(N)c4Cl)c(N)n3)CC2)C1N | 46.9
O=C(c1cc(Cc2n[nH]c(=O)c3ccccc23)ccc1F)N1CCN(C(=O)C2CC2)CC1 + CC1OCC2(CCN(c3cnc(Sc4ccnc(N)c4Cl)c(N)n3)CC2)C1N | 102

same assay, conditions: second compound 1 µM; first compound 1 µM; active compounds read low

Compound | viability, T/C [%]
COC(=O)c1ccc2c(C(=Nc3ccc(N(C)C(=O)CN4CCN(C)CC4)cc3)c3ccccc3)c(O)[nH]c2c1 + CC1OCC2(CCN(c3cnc(Sc4ccnc(N)c4Cl)c(N)n3)CC2)C1N | 41.6
COc1cc(Nc2ncc3c(n2)-c2ccc(Cl)cc2C(c2c(F)cccc2OC)=NC3)ccc1C(=O)O + CC1OCC2(CCN(c3cnc(Sc4ccnc(N)c4Cl)c(N)n3)CC2)C1N | 26.6
COc1cc2nccc(Oc3ccc(NC(=O)C4(C(=O)Nc5ccc(F)cc5)CC4)cc3)c2cc1OC + CC1OCC2(CCN(c3cnc(Sc4ccnc(N)c4Cl)c(N)n3)CC2)C1N | 58.4
O=C(c1cc(Cc2n[nH]c(=O)c3ccccc23)ccc1F)N1CCN(C(=O)C2CC2)CC1 + CC1OCC2(CCN(c3cnc(Sc4ccnc(N)c4Cl)c(N)n3)CC2)C1N | 101

same assay, conditions: second compound 1 µM; first compound 3.16 µM; active compounds read low

Compound | viability, T/C [%]
COC(=O)c1ccc2c(C(=Nc3ccc(N(C)C(=O)CN4CCN(C)CC4)cc3)c3ccccc3)c(O)[nH]c2c1 + CC1OCC2(CCN(c3cnc(Sc4ccnc(N)c4Cl)c(N)n3)CC2)C1N | 43.9
COc1cc(Nc2ncc3c(n2)-c2ccc(Cl)cc2C(c2c(F)cccc2OC)=NC3)ccc1C(=O)O + CC1OCC2(CCN(c3cnc(Sc4ccnc(N)c4Cl)c(N)n3)CC2)C1N | 30.4
COc1cc2nccc(Oc3ccc(NC(=O)C4(C(=O)Nc5ccc(F)cc5)CC4)cc3)c2cc1OC + CC1OCC2(CCN(c3cnc(Sc4ccnc(N)c4Cl)c(N)n3)CC2)C1N | 52.8
O=C(c1cc(Cc2n[nH]c(=O)c3ccccc23)ccc1F)N1CCN(C(=O)C2CC2)CC1 + CC1OCC2(CCN(c3cnc(Sc4ccnc(N)c4Cl)c(N)n3)CC2)C1N | 88.5

same assay, conditions: second compound 1 µM; first compound 10 µM; active compounds read low

Compound | viability, T/C [%]
COC(=O)c1ccc2c(C(=Nc3ccc(N(C)C(=O)CN4CCN(C)CC4)cc3)c3ccccc3)c(O)[nH]c2c1 + CC1OCC2(CCN(c3cnc(Sc4ccnc(N)c4Cl)c(N)n3)CC2)C1N | 41.6
COc1cc(Nc2ncc3c(n2)-c2ccc(Cl)cc2C(c2c(F)cccc2OC)=NC3)ccc1C(=O)O + CC1OCC2(CCN(c3cnc(Sc4ccnc(N)c4Cl)c(N)n3)CC2)C1N | 33.7
COc1cc2nccc(Oc3ccc(NC(=O)C4(C(=O)Nc5ccc(F)cc5)CC4)cc3)c2cc1OC + CC1OCC2(CCN(c3cnc(Sc4ccnc(N)c4Cl)c(N)n3)CC2)C1N | 45.4
O=C(c1cc(Cc2n[nH]c(=O)c3ccccc23)ccc1F)N1CCN(C(=O)C2CC2)CC1 + CC1OCC2(CCN(c3cnc(Sc4ccnc(N)c4Cl)c(N)n3)CC2)C1N | 47.8

same assay, conditions: second compound 3.16 µM; first compound 0.0001 µM; active compounds read low

Compound | viability, T/C [%]
CC(=O)Nc1cccc(-n2c(=O)n(C3CC3)c(=O)c3c(Nc4ccc(I)cc4F)n(C)c(=O)c(C)c32)c1 + CC1OCC2(CCN(c3cnc(Sc4ccnc(N)c4Cl)c(N)n3)CC2)C1N | 29

same assay, conditions: second compound 3.16 µM; first compound 0.000316 µM; active compounds read low

Compound | viability, T/C [%]
CC(=O)Nc1cccc(-n2c(=O)n(C3CC3)c(=O)c3c(Nc4ccc(I)cc4F)n(C)c(=O)c(C)c32)c1 + CC1OCC2(CCN(c3cnc(Sc4ccnc(N)c4Cl)c(N)n3)CC2)C1N | 27.8
CC(C)n1nc(-c2ccc3oc(N)nc3c2)c2c(N)ncnc21 + CC1OCC2(CCN(c3cnc(Sc4ccnc(N)c4Cl)c(N)n3)CC2)C1N | 36.2

same assay, conditions: second compound 3.16 µM; first compound 0.001 µM; active compounds read low

Compound | viability, T/C [%]
CC(=O)Nc1cccc(-n2c(=O)n(C3CC3)c(=O)c3c(Nc4ccc(I)cc4F)n(C)c(=O)c(C)c32)c1 + CC1OCC2(CCN(c3cnc(Sc4ccnc(N)c4Cl)c(N)n3)CC2)C1N | 21.7
CC(C)n1nc(-c2ccc3oc(N)nc3c2)c2c(N)ncnc21 + CC1OCC2(CCN(c3cnc(Sc4ccnc(N)c4Cl)c(N)n3)CC2)C1N | 27

same assay, conditions: second compound 3.16 µM; first compound 0.00316 µM; active compounds read low

Compound | viability, T/C [%]
CC(=O)Nc1cccc(-n2c(=O)n(C3CC3)c(=O)c3c(Nc4ccc(I)cc4F)n(C)c(=O)c(C)c32)c1 + CC1OCC2(CCN(c3cnc(Sc4ccnc(N)c4Cl)c(N)n3)CC2)C1N | 17.4
CC(C)n1nc(-c2ccc3oc(N)nc3c2)c2c(N)ncnc21 + CC1OCC2(CCN(c3cnc(Sc4ccnc(N)c4Cl)c(N)n3)CC2)C1N | 21.4

same assay, conditions: second compound 3.16 µM; first compound 0.01 µM; active compounds read low

Compound | viability, T/C [%]
CC(=O)Nc1cccc(-n2c(=O)n(C3CC3)c(=O)c3c(Nc4ccc(I)cc4F)n(C)c(=O)c(C)c32)c1 + CC1OCC2(CCN(c3cnc(Sc4ccnc(N)c4Cl)c(N)n3)CC2)C1N | 18.8
CC(C)n1nc(-c2ccc3oc(N)nc3c2)c2c(N)ncnc21 + CC1OCC2(CCN(c3cnc(Sc4ccnc(N)c4Cl)c(N)n3)CC2)C1N | 10.4

same assay, conditions: second compound 3.16 µM; first compound 0.0316 µM; active compounds read low

Compound | viability, T/C [%]
CC(=O)Nc1cccc(-n2c(=O)n(C3CC3)c(=O)c3c(Nc4ccc(I)cc4F)n(C)c(=O)c(C)c32)c1 + CC1OCC2(CCN(c3cnc(Sc4ccnc(N)c4Cl)c(N)n3)CC2)C1N | 17.8
CC(C)n1nc(-c2ccc3oc(N)nc3c2)c2c(N)ncnc21 + CC1OCC2(CCN(c3cnc(Sc4ccnc(N)c4Cl)c(N)n3)CC2)C1N | 4.33
COC(=O)c1ccc2c(C(=Nc3ccc(N(C)C(=O)CN4CCN(C)CC4)cc3)c3ccccc3)c(O)[nH]c2c1 + CC1OCC2(CCN(c3cnc(Sc4ccnc(N)c4Cl)c(N)n3)CC2)C1N | 34.6
COc1cc(Nc2ncc3c(n2)-c2ccc(Cl)cc2C(c2c(F)cccc2OC)=NC3)ccc1C(=O)O + CC1OCC2(CCN(c3cnc(Sc4ccnc(N)c4Cl)c(N)n3)CC2)C1N | 37.2
COc1cc2nccc(Oc3ccc(NC(=O)C4(C(=O)Nc5ccc(F)cc5)CC4)cc3)c2cc1OC + CC1OCC2(CCN(c3cnc(Sc4ccnc(N)c4Cl)c(N)n3)CC2)C1N | 35.1
O=C(c1cc(Cc2n[nH]c(=O)c3ccccc23)ccc1F)N1CCN(C(=O)C2CC2)CC1 + CC1OCC2(CCN(c3cnc(Sc4ccnc(N)c4Cl)c(N)n3)CC2)C1N | 36.6

same assay, conditions: second compound 3.16 µM; first compound 0.1 µM; active compounds read low

Compound | viability, T/C [%]
CC(C)n1nc(-c2ccc3oc(N)nc3c2)c2c(N)ncnc21 + CC1OCC2(CCN(c3cnc(Sc4ccnc(N)c4Cl)c(N)n3)CC2)C1N | 1.32
COC(=O)c1ccc2c(C(=Nc3ccc(N(C)C(=O)CN4CCN(C)CC4)cc3)c3ccccc3)c(O)[nH]c2c1 + CC1OCC2(CCN(c3cnc(Sc4ccnc(N)c4Cl)c(N)n3)CC2)C1N | 38.7
COc1cc(Nc2ncc3c(n2)-c2ccc(Cl)cc2C(c2c(F)cccc2OC)=NC3)ccc1C(=O)O + CC1OCC2(CCN(c3cnc(Sc4ccnc(N)c4Cl)c(N)n3)CC2)C1N | 22.2
COc1cc2nccc(Oc3ccc(NC(=O)C4(C(=O)Nc5ccc(F)cc5)CC4)cc3)c2cc1OC + CC1OCC2(CCN(c3cnc(Sc4ccnc(N)c4Cl)c(N)n3)CC2)C1N | 36.1
